Results published in the NIST ThermoML archive (doi:10.1016/j.fluid.2015.10.027).
Numbers after ± are expanded uncertainties.

Assay: heat capacity at constant pressure per volume; xn = mol fraction of the nth substance listed
Details: DSC

Cc1cccc(C)n1 [2,6-dimethylpyridine] + O
Liquid mixture 1, x1 = 0.066
Details	heat capacity [J/K/m3]
270.67 K	3943000 ± 150000
271.17 K	3939000 ± 150000
271.67 K	3932000 ± 150000
272.17 K	3933000 ± 150000
272.67 K	3929000 ± 150000
273.17 K	3934000 ± 150000
273.67 K	3928000 ± 150000
274.17 K	3930000 ± 150000
274.67 K	3924000 ± 150000
275.17 K	3925000 ± 150000
275.67 K	3922000 ± 150000
276.17 K	3920000 ± 150000
276.67 K	3918000 ± 150000
277.17 K	3918000 ± 150000
277.67 K	3919000 ± 150000
278.17 K	3918000 ± 150000
278.67 K	3916000 ± 150000
279.17 K	3913000 ± 150000
279.67 K	3916000 ± 150000
280.17 K	3914000 ± 150000
280.67 K	3914000 ± 150000
281.18 K	3913000 ± 150000
281.68 K	3910000 ± 150000
282.18 K	3910000 ± 150000
282.68 K	3907000 ± 150000
283.18 K	3907000 ± 150000
283.68 K	3904000 ± 150000
284.18 K	3907000 ± 150000
284.68 K	3905000 ± 150000
285.18 K	3909000 ± 150000
285.68 K	3905000 ± 150000
286.18 K	3903000 ± 150000
286.68 K	3907000 ± 150000
287.18 K	3907000 ± 150000
287.68 K	3910000 ± 150000
288.18 K	3913000 ± 150000
288.68 K	3913000 ± 150000
289.18 K	3912000 ± 150000
289.68 K	3912000 ± 150000
290.18 K	3910000 ± 150000
290.68 K	3913000 ± 150000
291.18 K	3912000 ± 150000
291.68 K	3913000 ± 150000
292.18 K	3916000 ± 150000
292.68 K	3917000 ± 150000
293.18 K	3915000 ± 150000
293.68 K	3911000 ± 150000
294.18 K	3914000 ± 150000
294.68 K	3914000 ± 150000
295.18 K	3913000 ± 150000
295.68 K	3912000 ± 150000
296.18 K	3913000 ± 150000
296.68 K	3912000 ± 150000
297.18 K	3914000 ± 150000
297.69 K	3914000 ± 150000
298.19 K	3918000 ± 150000
298.69 K	3919000 ± 150000
299.19 K	3916000 ± 150000
299.78 K	3918000 ± 150000
299.99 K	3916000 ± 150000
300.2 K	3912000 ± 150000
300.41 K	3920000 ± 150000
300.62 K	3927000 ± 150000
300.84 K	3944000 ± 150000
301.05 K	3932000 ± 150000
301.26 K	3930000 ± 150000
301.47 K	3942000 ± 150000
301.69 K	3950000 ± 150000
301.9 K	3947000 ± 150000
302.11 K	3945000 ± 150000
302.32 K	3932000 ± 150000
302.54 K	3934000 ± 150000
302.75 K	3933000 ± 150000
302.96 K	3962000 ± 150000
303.17 K	3969000 ± 150000
303.38 K	3938000 ± 150000
303.6 K	3938000 ± 150000
303.81 K	3935000 ± 150000
304.02 K	3948000 ± 150000
304.23 K	3973000 ± 150000
304.44 K	3963000 ± 150000
304.66 K	3960000 ± 150000
304.87 K	3953000 ± 150000
305.08 K	3960000 ± 150000
305.29 K	3975000 ± 150000
305.51 K	3976000 ± 150000
305.72 K	3956000 ± 150000
305.93 K	4006000 ± 160000
306.14 K	4011000 ± 160000
306.36 K	4082000 ± 160000
306.57 K	4075000 ± 160000

102.6 kPa, Liquid, x1 = 0.066
Details	heat capacity [J/K/m3]
306.78 K	4520000 ± 180000
306.99 K	4372000 ± 170000
307.2 K	4347000 ± 170000
307.42 K	4321000 ± 170000
307.63 K	4254000 ± 160000
307.84 K	4227000 ± 160000
308.05 K	4182000 ± 160000
308.27 K	4223000 ± 160000
308.48 K	4199000 ± 160000
308.69 K	4189000 ± 160000
308.9 K	4170000 ± 160000
309.12 K	4188000 ± 160000
309.33 K	4206000 ± 160000
309.54 K	4165000 ± 160000
309.75 K	4175000 ± 160000
309.96 K	4206000 ± 160000
310.18 K	4189000 ± 160000
310.39 K	4172000 ± 160000
310.6 K	4170000 ± 160000
310.81 K	4154000 ± 160000
311.03 K	4103000 ± 160000
311.24 K	4121000 ± 160000
311.45 K	4142000 ± 160000
311.66 K	4101000 ± 160000
311.88 K	4141000 ± 160000
312.09 K	4083000 ± 160000
312.3 K	4117000 ± 160000
312.51 K	4078000 ± 160000
312.73 K	4100000 ± 160000

CC1CCCC(C)N1 (stereo not drawn) [2,6-dimethylpiperidine] + O
Liquid mixture 1, x1 = 0.055
Details	heat capacity [J/K/m3]
264 K	4559000 ± 180000
264.47 K	4560000 ± 180000
264.95 K	4546000 ± 180000
265.42 K	4529000 ± 180000
265.9 K	4518000 ± 180000
266.37 K	4505000 ± 170000
266.84 K	4492000 ± 170000
267.32 K	4480000 ± 170000
267.79 K	4471000 ± 170000
268.26 K	4448000 ± 170000
268.74 K	4442000 ± 170000
269.21 K	4429000 ± 170000
269.68 K	4420000 ± 170000
270.16 K	4409000 ± 170000
270.63 K	4398000 ± 170000
271.1 K	4391000 ± 170000
271.58 K	4375000 ± 170000
272.05 K	4367000 ± 170000
272.52 K	4356000 ± 170000
273 K	4342000 ± 170000
273.47 K	4341000 ± 170000
273.94 K	4336000 ± 170000
274.42 K	4322000 ± 170000
274.89 K	4313000 ± 170000
275.36 K	4305000 ± 170000
275.84 K	4293000 ± 170000
276.31 K	4289000 ± 170000
276.78 K	4278000 ± 170000
277.25 K	4274000 ± 170000
277.73 K	4266000 ± 160000
278.2 K	4260000 ± 160000
278.68 K	4252000 ± 160000
279.15 K	4250000 ± 160000
279.62 K	4239000 ± 160000
280.1 K	4237000 ± 160000
280.57 K	4227000 ± 160000
281.04 K	4227000 ± 160000
281.51 K	4221000 ± 160000
281.99 K	4216000 ± 160000
282.46 K	4215000 ± 160000
282.94 K	4208000 ± 160000
283.41 K	4206000 ± 160000
283.88 K	4199000 ± 160000
284.36 K	4195000 ± 160000
284.83 K	4191000 ± 160000
285.3 K	4189000 ± 160000
285.77 K	4182000 ± 160000
286.25 K	4178000 ± 160000
286.72 K	4177000 ± 160000
287.19 K	4174000 ± 160000
287.67 K	4174000 ± 160000
288.14 K	4172000 ± 160000
288.61 K	4170000 ± 160000
289.09 K	4171000 ± 160000
289.56 K	4167000 ± 160000
290.03 K	4166000 ± 160000
290.51 K	4165000 ± 160000
290.98 K	4166000 ± 160000
291.45 K	4165000 ± 160000
291.93 K	4166000 ± 160000
292.6 K	4164000 ± 160000
292.81 K	4147000 ± 160000
293.02 K	4141000 ± 160000
293.23 K	4164000 ± 160000
293.45 K	4134000 ± 160000
293.66 K	4144000 ± 160000
293.87 K	4164000 ± 160000
294.08 K	4166000 ± 160000
294.3 K	4164000 ± 160000
294.51 K	4144000 ± 160000
294.72 K	4183000 ± 160000
294.93 K	4155000 ± 160000
295.14 K	4142000 ± 160000
295.36 K	4144000 ± 160000
295.57 K	4153000 ± 160000
295.78 K	4178000 ± 160000
295.99 K	4155000 ± 160000
296.2 K	4175000 ± 160000
296.42 K	4213000 ± 160000
296.63 K	4189000 ± 160000
296.84 K	4188000 ± 160000
297.06 K	4228000 ± 160000
297.27 K	4210000 ± 160000
297.48 K	4217000 ± 160000
297.69 K	4232000 ± 160000
297.9 K	4249000 ± 160000
298.12 K	4247000 ± 160000
298.33 K	4277000 ± 170000
298.54 K	4280000 ± 170000
298.75 K	4295000 ± 170000
298.96 K	4312000 ± 170000
299.18 K	4375000 ± 170000
299.39 K	4534000 ± 180000

102.6 kPa, Liquid, x1 = 0.055
Details	heat capacity [J/K/m3]
299.6 K	5314000 ± 210000
299.81 K	5077000 ± 200000
300.03 K	5010000 ± 190000
300.24 K	4873000 ± 190000
300.45 K	4815000 ± 190000
300.66 K	4801000 ± 190000
300.88 K	4772000 ± 180000
301.09 K	4785000 ± 180000
301.3 K	4742000 ± 180000
301.51 K	4632000 ± 180000
301.73 K	4641000 ± 180000
301.94 K	4672000 ± 180000
302.15 K	4625000 ± 180000
302.36 K	4675000 ± 180000
302.57 K	4597000 ± 180000
302.79 K	4600000 ± 180000
303 K	4544000 ± 180000
303.21 K	4578000 ± 180000
303.42 K	4592000 ± 180000
303.64 K	4555000 ± 180000
303.85 K	4564000 ± 180000
304.06 K	4532000 ± 180000
304.27 K	4520000 ± 180000
304.49 K	4530000 ± 180000
304.7 K	4519000 ± 180000
304.91 K	4468000 ± 170000
305.12 K	4514000 ± 180000
305.33 K	4463000 ± 170000
305.55 K	4423000 ± 170000
305.76 K	4443000 ± 170000
